# Measurements from patent publication US20080226698A1 (priority 2007, published 2008).
Glass transition temperature of the amorphous form (DSC),SMILES,Tg of the amorphous form relative to normal storage temperature (normal storage temperature of 20° C. to 25° C.)
about −20 °C,"CCN(CC)CC#CCOC(=O)C(O)(c1ccccc1)C1CCCCC1 (centres unmarked) [oxybutynin base, oxybutynin]",
,CN1[C@@H]2C[C@@H](OC(=O)[C@H](CO)c3ccccc3)C[C@H]1[C@@H]1O[C@@H]12 [scopolamine],lower than the normal storage temperature
